Data reported in publication PMC8330742, “New benzothieno[2,3-c]pyridines as non-steroidal CYP17 inhibitors: design, synthesis, anticancer screening, apoptosis induction, and in silico ADME profile studies” (Journal of Enzyme Inhibition and Medicinal Chemistry, 2021).

Columns and labels:
CCRF-CEM = assay: NCI-60 SRB screen; type: cell-based; settings: Homo sapiens, single dose 10^−5 M, Leukaemia, read-out: Growth inhibition (%)
HL-60(TB) = assay: NCI-60 SRB screen; type: cell-based, human; settings: Homo sapiens; single dose 10^−5 M; HL-60(TB), Leukaemia; read-out: Growth inhibition (%)
K-562 = assay: NCI-60 SRB screen; type: cell-based, human; settings: Homo sapiens, K562; single dose 10^−5 M; K-562, Leukaemia; read-out: Growth inhibition (%)
MOLT-4 = assay: NCI-60 SRB screen; type: cell-based; settings: Homo sapiens; single dose 10^−5 M; MOLT-4, Leukaemia; read-out: Growth inhibition (%)
SR = assay: NCI-60 SRB screen; type: cell-based; settings: Homo sapiens, single dose 10^−5 M, Leukaemia, read-out: Growth inhibition (%)
A549/ATCC = assay: NCI-60 SRB screen; type: cell-based, human; settings: Homo sapiens, single dose 10^−5 M, Non-small cell lung carcinoma, read-out: Growth inhibition (%)
EKVX = assay: NCI-60 SRB screen; type: cell-based, human; settings: Homo sapiens, single dose 10^−5 M, Non-small cell lung carcinoma, read-out: Growth inhibition (%)
HOP-62 = assay: NCI-60 SRB screen; type: cell-based, human; settings: Homo sapiens; single dose 10^−5 M; HOP-62, Non-small cell lung carcinoma; read-out: Growth inhibition (%)
HOP-92 = assay: NCI-60 SRB screen; type: cell-based, human; settings: Homo sapiens; single dose 10^−5 M; HOP-92, Non-small cell lung carcinoma; read-out: Growth inhibition (%)
NCI-H226 = assay: NCI-60 SRB screen; type: cell-based, human; settings: Homo sapiens; single dose 10^−5 M; NCI-H226, Non-small cell lung carcinoma; read-out: Growth inhibition (%)
NCI-H23 = assay: NCI-60 SRB screen; type: cell-based, human; settings: Homo sapiens; single dose 10^−5 M; NCI-H23, Non-small cell lung carcinoma; read-out: Growth inhibition (%)
NCI-H322M = assay: NCI-60 SRB screen; type: cell-based, human; settings: Homo sapiens, single dose 10^−5 M, Non-small cell lung carcinoma, read-out: Growth inhibition (%)
NCI-H460 = assay: NCI-60 SRB screen; type: cell-based, human; settings: Homo sapiens; single dose 10^−5 M; NCI-H460, Non-small cell lung carcinoma; read-out: Growth inhibition (%)
NCI-H522 = assay: NCI-60 SRB screen; type: cell-based, human; settings: Homo sapiens; single dose 10^−5 M; NCI-H522, Non-small cell lung carcinoma; read-out: Growth inhibition (%)
COLO 205 = assay: NCI-60 SRB screen; type: cell-based, human; settings: Homo sapiens; single dose 10^−5 M; COLO 205, Colon cancer; read-out: Growth inhibition (%)
HCC-2998 = assay: NCI-60 SRB screen; type: cell-based, human; settings: Homo sapiens; single dose 10^−5 M; HCC-2998, Colon cancer; read-out: Growth inhibition (%)
HCT-116 = assay: NCI-60 SRB screen; type: cell-based, human; settings: Homo sapiens; single dose 10^−5 M; HCT-116, Colon cancer; read-out: Growth inhibition (%)
HCT-15 = assay: NCI-60 SRB screen; type: cell-based, human; settings: Homo sapiens; single dose 10^−5 M; HCT-15, Colon cancer; read-out: Growth inhibition (%)
HT-29 = assay: NCI-60 SRB screen; type: cell-based; settings: Homo sapiens; single dose 10^−5 M; HT-29, Colon cancer; read-out: Growth inhibition (%)
KM12 = assay: NCI-60 SRB screen; type: cell-based, human; settings: Homo sapiens; single dose 10^−5 M; KM12, Colon cancer; read-out: Growth inhibition (%)
SW-620 = assay: NCI-60 SRB screen; type: cell-based; settings: Homo sapiens; single dose 10^−5 M; SW-620, Colon cancer; read-out: Growth inhibition (%)
SF-268 = assay: NCI-60 SRB screen; type: cell-based, human; settings: Homo sapiens; single dose 10^−5 M; SF-268, CNS cancer; read-out: Growth inhibition (%)
SF-295 = assay: NCI-60 SRB screen; type: cell-based, human; settings: Homo sapiens; single dose 10^−5 M; SF-295, CNS cancer; read-out: Growth inhibition (%)
LOX IMVI = assay: NCI-60 SRB screen; type: cell-based, human; settings: Homo sapiens, single dose 10^−5 M, Melanoma, read-out: Growth inhibition (%)
MALME-3M = assay: NCI-60 SRB screen; type: cell-based, human; settings: Homo sapiens, single dose 10^−5 M, Melanoma, read-out: Growth inhibition (%)
M14 = assay: NCI-60 SRB screen; type: cell-based, human; settings: Homo sapiens; single dose 10^−5 M; M14, Melanoma; read-out: Growth inhibition (%)
MDA-MB-435 = assay: NCI-60 SRB screen; type: cell-based; settings: Homo sapiens, MDA-MB-435, read-out: Growth inhibition (%)
SK-MEL-2 = assay: NCI-60 SRB screen; type: cell-based, human; settings: Homo sapiens; single dose 10^−5 M; SK-MEL-2, Melanoma; read-out: Growth inhibition (%)
SK-MEL-28 = assay: NCI-60 SRB screen; type: cell-based; settings: Homo sapiens; single dose 10^−5 M; SK-MEL-28, Melanoma; read-out: Growth inhibition (%)
SK-MEL-5 = assay: NCI-60 SRB screen; type: cell-based, human; settings: Homo sapiens; single dose 10^−5 M; SK-MEL-5, Melanoma; read-out: Growth inhibition (%)
UACC-257 = assay: NCI-60 SRB screen; type: cell-based, human; settings: Homo sapiens; single dose 10^−5 M; UACC-257, Melanoma; read-out: Growth inhibition (%)
UACC-62 = assay: NCI-60 SRB screen; type: cell-based, human; settings: Homo sapiens; single dose 10^−5 M; UACC-62, Melanoma; read-out: Growth inhibition (%)
IGROV1 = assay: NCI-60 SRB screen; type: cell-based, human; settings: Homo sapiens, IGROV-1; single dose 10^−5 M; IGROV1, Ovarian cancer; read-out: Growth inhibition (%)
OVCAR-3 = assay: NCI-60 SRB screen; type: cell-based, human; settings: Homo sapiens; single dose 10^−5 M; OVCAR-3, Ovarian cancer; read-out: Growth inhibition (%)
OVCAR-4 = assay: NCI-60 SRB screen; type: cell-based, human; settings: Homo sapiens; single dose 10^−5 M; OVCAR-4, Ovarian cancer; read-out: Growth inhibition (%)
OVCAR-8 = assay: NCI-60 SRB screen; type: cell-based, human; settings: Homo sapiens; single dose 10^−5 M; OVCAR-8, Ovarian cancer; read-out: Growth inhibition (%)
NCI/ADR-RES = assay: NCI-60 SRB screen; type: cell-based, human; settings: Homo sapiens, single dose 10^−5 M, Ovarian cancer, read-out: Growth inhibition (%)
SK-OV-3 = assay: NCI-60 SRB screen; type: cell-based, human; settings: Homo sapiens; single dose 10^−5 M; SK-OV-3, Ovarian cancer; read-out: Growth inhibition (%)
786-0 = assay: NCI-60 SRB screen; type: cell-based; settings: Homo sapiens; single dose 10^−5 M; 786-0, Renal cancer; read-out: Growth inhibition (%)
ACHN = assay: NCI-60 SRB screen; type: cell-based; settings: Homo sapiens, single dose 10^−5 M, Renal cancer, read-out: Growth inhibition (%)
CAKI-1 = assay: NCI-60 SRB screen; type: cell-based, human; settings: Homo sapiens; single dose 10^−5 M; CAKI-1, Renal cancer; read-out: Growth inhibition (%)
SN12C = assay: NCI-60 SRB screen; type: cell-based, human; settings: Homo sapiens, SN12C; single dose 10^−5 M; SN 12 C, Renal cancer; read-out: Growth inhibition (%)
TK-10 = assay: NCI-60 SRB screen; type: cell-based, human; settings: Homo sapiens; single dose 10^−5 M; TK-10, Renal cancer; read-out: Growth inhibition (%)
UO-31 = assay: NCI-60 SRB screen; type: cell-based, human; settings: Homo sapiens; single dose 10^−5 M; UO-31, Renal cancer; read-out: Growth inhibition (%)
[1] = test system: panel of 60 cancer cell lines; assay: NCI-60 SRB screen, mean or range over the panel; type: cell-based, human; settings: Homo sapiens; mean over the cell lines; single dose 10^−5 M; read-out: Mean growth inhibition (%)

`CCN1CCN(C2=C(C#N)c3c(sc4c(F)cccc34)C(c3cccc([N+](=O)[O-])c3)N2)CC1` (stereo not drawn) [Compound 8d, 4-Cyano-3-(4-ethylpiperazin-1-yl)-8-fluoro-1-(3-nitrophenyl)-1,2-dihydro [1]benzothieno[2,3-c]pyridine] gave an inhibition at 10 µM (CCRF-CEM) of -0.37%, an inhibition at 10 µM (HL-60(TB)) of -15.6% and an inhibition at 10 µM (K-562) of 4.11%. It also gave an inhibition at 10 µM (MOLT-4) of 8.62%, an inhibition at 10 µM (SR) of 11.8% and an inhibition at 10 µM (A549/ATCC) of -2.72%. The inhibition at 10 µM (EKVX) was 12.5%, the inhibition at 10 µM (HOP-62) was 16.1% and the inhibition at 10 µM (HOP-92) was 18.9%. It also gave an inhibition at 10 µM (NCI-H226) of 15.7%, an inhibition at 10 µM (NCI-H23) of 3.9% and an inhibition at 10 µM (NCI-H322M) of 1.85%. The inhibition at 10 µM (NCI-H460) was -1.12%, the inhibition at 10 µM (NCI-H522) was 4.68% and the inhibition at 10 µM (COLO 205) was -5.97%. The inhibition at 10 µM (HCC-2998) was -12.2%, the inhibition at 10 µM (HCT-116) was 1.31% and the inhibition at 10 µM (HCT-15) was -6.34%. For the same compound, the inhibition at 10 µM (HT-29) was -4.51%, the inhibition at 10 µM (KM12) was -0.49% and the inhibition at 10 µM (SW-620) was 3.43%. The inhibition at 10 µM (SF-268) was 4.87%, the inhibition at 10 µM (SF-295) was -1.19% and the inhibition at 10 µM (LOX IMVI) was 4.73%. The inhibition at 10 µM (MALME-3M) was -7.54%, the inhibition at 10 µM (M14) was 4.65% and the inhibition at 10 µM (MDA-MB-435) was -7.84%. For the same compound, the inhibition at 10 µM (SK-MEL-2) was 1.77%, the inhibition at 10 µM (SK-MEL-28) was -15.8% and the inhibition at 10 µM (SK-MEL-5) was -10.7%. The inhibition at 10 µM (UACC-257) was -23.7%, the inhibition at 10 µM (UACC-62) was 6.81% and the inhibition at 10 µM (IGROV1) was 23.7%. It also gave an inhibition at 10 µM (OVCAR-3) of -2.65%, an inhibition at 10 µM (OVCAR-4) of -0.52% and an inhibition at 10 µM (OVCAR-8) of -1.56%. The inhibition at 10 µM (NCI/ADR-RES) was -4.88%, the inhibition at 10 µM (SK-OV-3) was 11.5% and the inhibition at 10 µM (786-0) was -9.68%. It also gave an inhibition at 10 µM (ACHN) of 9.28%, an inhibition at 10 µM (CAKI-1) of 25.2% and an inhibition at 10 µM (SN12C) of 1.95%. It also gave an inhibition at 10 µM (TK-10) of -37%, an inhibition at 10 µM (UO-31) of 33.5% and an inhibition at 10 µM [1] of 1.33%.
With `N#CC1=C(N2CCOCC2)NC(c2cccc([N+](=O)[O-])c2)c2sc3c(F)cccc3c21` (stereo not drawn) [Compound 8e, 4-Cyano-3-(4-morpholino)-8-fluoro-1-(3-nitrophenyl)-1,2-dihydro [1]benzothieno[2,3-c]pyridine] the inhibition at 10 µM (CCRF-CEM) was 6.67%, the inhibition at 10 µM (HL-60(TB)) was -16.5% and the inhibition at 10 µM (K-562) was 9.66%. It also gave an inhibition at 10 µM (MOLT-4) of 5.54%, an inhibition at 10 µM (SR) of 9.91% and an inhibition at 10 µM (A549/ATCC) of 0.1%. The inhibition at 10 µM (EKVX) was 9.9%, the inhibition at 10 µM (HOP-62) was 18% and the inhibition at 10 µM (HOP-92) was 11.8%. It also gave an inhibition at 10 µM (NCI-H226) of 10.4%, an inhibition at 10 µM (NCI-H23) of 2.35% and an inhibition at 10 µM (NCI-H322M) of 3.9%. It also gave an inhibition at 10 µM (NCI-H460) of 2.61%, an inhibition at 10 µM (NCI-H522) of 8.18% and an inhibition at 10 µM (COLO 205) of -17.4%. The inhibition at 10 µM (HCC-2998) was -8.91%, the inhibition at 10 µM (HCT-116) was 8.86% and the inhibition at 10 µM (HCT-15) was -6.78%. It also gave an inhibition at 10 µM (HT-29) of -5.64%, an inhibition at 10 µM (KM12) of 0.52% and an inhibition at 10 µM (SW-620) of 5.32%. The inhibition at 10 µM (SF-268) was 7.51%, the inhibition at 10 µM (SF-295) was -6.46% and the inhibition at 10 µM (LOX IMVI) was 3.9%. It also gave an inhibition at 10 µM (MALME-3M) of -7.29%, an inhibition at 10 µM (M14) of -1.97% and an inhibition at 10 µM (MDA-MB-435) of -7.7%. For the same compound, the inhibition at 10 µM (SK-MEL-2) was 0.38%, the inhibition at 10 µM (SK-MEL-28) was -10.6% and the inhibition at 10 µM (SK-MEL-5) was -14.6%. For the same compound, the inhibition at 10 µM (UACC-257) was -6.7%, the inhibition at 10 µM (UACC-62) was 6.7% and the inhibition at 10 µM (IGROV1) was 25.4%. It also gave an inhibition at 10 µM (OVCAR-3) of 0.17%, an inhibition at 10 µM (OVCAR-4) of -2.02% and an inhibition at 10 µM (OVCAR-8) of 4.28%. It also gave an inhibition at 10 µM (NCI/ADR-RES) of -0.28%, an inhibition at 10 µM (SK-OV-3) of 7.67% and an inhibition at 10 µM (786-0) of -9.79%. The inhibition at 10 µM (ACHN) was 11.9%, the inhibition at 10 µM (CAKI-1) was 27.4% and the inhibition at 10 µM (SN12C) was 6.28%. It also gave an inhibition at 10 µM (TK-10) of -59.3%, an inhibition at 10 µM (UO-31) of 38.4% and an inhibition at 10 µM [1] of 1.3%.
